# Columns and labels:
# phosphorylated FGFR3 = phosphorylated FGFR3 (Homo sapiens (Human), UniProt P22607); experiment: FGFR Enzyme Binding Assay (HTRF tracer displacement), FGFR3; conditions: 5 nM phosphorylated FGFR3, 60 minute incubation at 22° C.; read-out: FGFR3 Enz Binding IC50
# Method: (§1) The potency of compounds inhibiting human isoforms of FGFR kinase was determined using Life Technologies' Homogeneous Time Resolved Fluorescence (HTRF)-based binding assay technology. An incubation was conducted with either 5 nM dephosphorylated FGFR1 (Array Biopharma, p1702; SEQ ID NO: 1, amino acids 458 to 765, dephosphorylated by co-expression with PTP1b (protein tyrosine phosphatase 1B)), 5 nM dephosphorylated FGFR2 (Life Technologies, Cat. No. PV4106 that had been dephosphorylated with Lambda protein phosphatase (New England Biolabs, cat #P0753)) or 5 nM phosphorylated FGFR3 (Array Biopharma, p1836; SEQ ID NO: 5, amino acids 449 to 759), 50 nM Kinase Tracer 236 (Life Technologies Cat. No. PR9078A), 2 nM Biotin-anti-6HIS (Life Technologies Cat. No. PV6090) and 2 nM Europium-Streptavidin (Life Technologies Cat. No. PV6025) along with test compound in a buffer consisting of 50 mM HEPES ((4-(2-hydroxyethyl)-1-piperazineethanesulfonic acid, pH 7.5), 5 mM MgCl2, 0.005% Triton X-100, 1 mM DTT, 1 mM NaVO4 and 2% DMSO in a final volume of 12 μL Compounds were typically prepared as a 3-fold or 4-fold serial dilution in DMSO and added to the assay to give the appropriate final concentration. After a 60 minute incubation at 22° C., the extent of tracer displacement was determined using a PerkinElmer EnVision multimode plate reader via HTRF dual wavelength detection, and the percent of control (POC) was calculated using a ratiometric emission factor. One hundred POC was determined using no test compound, and 0 POC was determined in the presence of 1 μM of an appropriate control inhibitor. A 4-parameter logistic curve was fit to the POC values as a function of the concentration of compound, and the IC50 value was the point where the best-fit curve crossed 50 POC.
# dephosphorylated FGFR1 = dephosphorylated FGFR1 (Homo sapiens (Human), UniProt P11362); experiment: FGFR Enzyme Binding Assay (HTRF tracer displacement), FGFR1; conditions: 5 nM dephosphorylated FGFR1, 60 minute incubation at 22° C.; read-out: FGFR1 Enz Binding IC50
# Sequence of dephosphorylated FGFR1 (P11362 458-765): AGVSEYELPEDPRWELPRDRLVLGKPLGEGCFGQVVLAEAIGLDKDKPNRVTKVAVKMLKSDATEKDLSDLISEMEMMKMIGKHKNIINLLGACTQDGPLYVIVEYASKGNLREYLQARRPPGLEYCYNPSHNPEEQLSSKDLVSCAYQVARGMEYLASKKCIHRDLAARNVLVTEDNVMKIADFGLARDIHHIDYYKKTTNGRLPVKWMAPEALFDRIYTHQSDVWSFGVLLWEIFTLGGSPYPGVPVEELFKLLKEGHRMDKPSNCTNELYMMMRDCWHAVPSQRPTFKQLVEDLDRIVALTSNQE
# Method: as §1
# [1] = biological target: recombinant human FGFR2 cytoplasmic domain (Homo sapiens (Human), UniProt P21802); experiment: FGFR Enzyme Activity Assay (LanthaScreen TR-FRET), FGFR2; assay type: biochemical; conditions: 15 μM ATP, 20 minute incubation; read-out: FGFR2 Enz FRET IC50
# Sequence of recombinant human FGFR2 cytoplasmic domain (P21802 402-821): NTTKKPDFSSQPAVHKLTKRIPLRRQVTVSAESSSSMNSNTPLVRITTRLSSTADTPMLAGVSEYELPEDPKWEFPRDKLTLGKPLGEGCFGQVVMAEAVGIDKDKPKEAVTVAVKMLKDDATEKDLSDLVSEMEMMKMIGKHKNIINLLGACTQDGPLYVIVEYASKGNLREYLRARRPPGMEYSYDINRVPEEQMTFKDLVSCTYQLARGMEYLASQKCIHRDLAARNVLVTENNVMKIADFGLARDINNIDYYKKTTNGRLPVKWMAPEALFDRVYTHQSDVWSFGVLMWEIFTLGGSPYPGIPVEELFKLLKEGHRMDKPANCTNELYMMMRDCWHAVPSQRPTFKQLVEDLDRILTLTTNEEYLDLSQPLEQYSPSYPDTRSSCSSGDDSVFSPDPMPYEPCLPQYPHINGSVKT
# Method: FGFR2 kinase activity was measured by the Invitrogen LanthaScreen™ Assay technology which directly measures the amount of substrate phosphorylation by TR-FRET using a flourescently-labeled peptide and Europium-labeled antibody. Briefly, 200 pM His-tagged recombinant human FGFR2 cytoplasmic domain (amino acids 403-822) (Life Technologies Cat. No. PR5332A) was incubated with 100 nM Alexa Fluor® 647-Poly-GT Peptide Substrate (Life Technologies Cat. No. PV5836) and 15 μM ATP along with test compound in a buffer consisting of 250 mM HEPES, 25 mM MgCl2, 0.05% TritonX-100, pH 7.5, and 2% DMSO. Compounds were typically prepared in a threefold serial dilution in DMSO and added to the assay to give the appropriate final concentration. After a 20 minute incubation at 22° C., an equal volume of 2 nM LanthaScreen® Eu-PY20 Antibody (Life Technologies Cat. No. PV5691) and 10 mM EDTA were added to quench the kinase reaction and start the detection reaction. After an additional 60 minute incubation at 22° C., the reaction was measured using a PerkinElmer EnVision multimode plate reader via TR-FRET dual wavelength detection, and the percent of control (POC) calculated using a ratiometric emission factor. 100 POC was determined using no test compounds and 0 POC was determined using no enzyme. The POC values were fit to a 4-parameter logistic curve as a function of the concentration of the compound, and the IC50 value is the point where the curve crosses 50 POC.
# [2] = biological target: recombinant human FGFR1 catalytic domain (Homo sapiens (Human), UniProt P11362); experiment: FGFR Enzyme Activity Assay (LanthaScreen TR-FRET), FGFR1; assay type: biochemical; conditions: 15 μM ATP, 20 minutes incubation; read-out: FGFR1 Enz FRET IC50
# Sequence of recombinant human FGFR1 catalytic domain (P11362 other isoform, or with tags, fused parts or gaps): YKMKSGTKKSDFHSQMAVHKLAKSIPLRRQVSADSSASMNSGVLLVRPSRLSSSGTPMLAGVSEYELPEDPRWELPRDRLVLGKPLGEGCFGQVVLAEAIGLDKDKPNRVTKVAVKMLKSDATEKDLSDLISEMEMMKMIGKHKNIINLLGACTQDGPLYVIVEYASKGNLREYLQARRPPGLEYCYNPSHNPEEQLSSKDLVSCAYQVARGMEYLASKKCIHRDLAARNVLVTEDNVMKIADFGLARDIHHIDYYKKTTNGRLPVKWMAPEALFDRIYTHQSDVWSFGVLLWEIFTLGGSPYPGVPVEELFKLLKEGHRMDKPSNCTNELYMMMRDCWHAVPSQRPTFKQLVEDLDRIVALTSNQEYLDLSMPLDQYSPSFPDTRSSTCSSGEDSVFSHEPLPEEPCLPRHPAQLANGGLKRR
# Method: FGFR1 kinase activity was measured by the Invitrogen LanthaScreen™ Assay technology which directly measures the amount of substrate phosphorylation by Time-resolved fluorescence energy transfer (TR-FRET) using a flourescently-labeled peptide and Europium-labeled antibody. Briefly, 200 pM His-tagged recombinant human FGFR1 catalytic domain (amino acids 308-731) (Life Technologies Cat. No. PR4660A) was incubated with 100 nM Alexa Fluor® 647-Poly-GT Peptide Substrate (Life Technologies Cat. No. PV5836) and 15 μM ATP along with test compound in a buffer consisting of 250 mM HEPES, 25 mM MgCl2, 0.05% TritonX-100, pH 7.5, and 2% DMSO. Compounds were typically prepared in a threefold serial dilution in DMSO and added to the assay to give the appropriate final concentration. After a 20 minutes incubation at 22° C., an equal volume of 2 nM LanthaScreen® Eu-PY20 Antibody (Life Technologies Cat. No. PV5691) and 10 mM EDTA was added to quench the kinase reaction and start the detection reaction. After an additional 60 minute incubation at 22° C., the reaction was measured using a PerkinElmer EnVision multimode plate reader via TR-FRET dual wavelength detection, and the percent of control (POC) calculated using a ratiometric emission factor. 100 POC was determined using no test compounds and 0 POC was determined using no enzyme. The POC values were fit to a 4-parameter logistic curve as a function of the concentration of the compound, and the IC50 value is the point where the curve crosses 50 POC.
# Sequence of phosphorylated FGFR3 (P22607 449-759): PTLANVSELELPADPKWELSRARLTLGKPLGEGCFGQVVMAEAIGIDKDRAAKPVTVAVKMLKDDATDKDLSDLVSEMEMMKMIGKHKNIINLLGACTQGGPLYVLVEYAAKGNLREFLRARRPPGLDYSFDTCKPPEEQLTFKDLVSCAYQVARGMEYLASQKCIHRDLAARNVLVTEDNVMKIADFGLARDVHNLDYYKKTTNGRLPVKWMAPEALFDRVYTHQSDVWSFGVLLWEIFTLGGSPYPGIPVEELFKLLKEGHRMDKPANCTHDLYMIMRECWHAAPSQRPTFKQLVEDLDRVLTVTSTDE
SMILES,IC50 (phosphorylated FGFR3),IC50 (dephosphorylated FGFR1),IC50 [1],IC50 [2]
"C=CC(=O)N1CC(C#N)(C(=O)N2CCC(n3cc(-c4cnc5ccc(Nc6cc(OC)cc(OC)c6)cc5n4)cn3)CC2)C1 [Example 12, 1-acryloyl-3-(4-(4-(7-((3,5-dimethoxyphenyl)-amino)quinoxalin-2-yl)-1H-pyrazol-1-yl)-piperidine-1-carbonyl)-azetidine-3-carbonitrile]",3 nM,48 nM,33 nM,89 nM
"C=CC(=O)N1CC(F)(C(=O)N2CCN(c3ccc(-c4cnc5ccc(Nc6cc(OC)cc(OC)c6)cc5n4)cn3)CC2)C1 [Example 8, 1-(3-(4-(5-(7-((3,5-dimethoxyphenyl)amino)-quinoxalin-2-yl)pyridin-2-yl)piperazine-1-carbonyl)-3-fluoroazetidin-1-yl)-prop-2-en-1-one]",30 nM,558 nM,744 nM,831 nM
"C=CC(=O)N1CC(C(=O)N2CCN(c3ccc(-c4cnc5ccc(Nc6cc(OC)cc(OC)c6)cc5n4)cn3)CC2)C1 [Example 5, 1-(3-(4-(5-(7-((3,5-dimethoxyphenyl)amino)-quinoxalin-2-yl)pyridin-2-yl)piperazine-1-carbonyl)azetidin-1-yl)-prop-2-en-1-one]",59 nM,623 nM,365 nM,448 nM
"C=CC(=O)N1CC(C(=O)N2CCC(n3cc(-c4cnc5ccc(Nc6cc(OC)cc(OC)c6)cc5n4)cn3)CC2)C1 [Example 1, 1-(3-(4-(4-(7-((3,5-dimethoxyphenyl)amino)quinoxalin-2-yl)-1H-pyrazol-1-yl)piperidine-1-carbonyl)azetidin-1-yl)prop-2-en-1-one]",2 nM,22 nM,11 nM,54 nM
"C=CC(=O)N1CC(C(=O)N2CC(n3cc(-c4cnc5ccc(Nc6cc(OC)cc(OC)c6)cc5n4)cn3)C2)C1 [Example 16, 1-(3-(3-(4-(7-((3,5-dimethoxyphenyl)amino)-quinoxalin-2-yl)-1H-pyrazol-1-yl)azetidine-1-carbonyl)azetidin-1-yl)-prop-2-en-1-one]",5 nM,30 nM,27 nM,48 nM
"C=CC(=O)N1CC(CN2CCC(n3cc(-c4cnc5ccc(Nc6cc(OC)cc(OC)c6)cc5n4)cn3)CC2)(OC)C1 [Example 29, 1-(3-((4-(4-(7-((3,5-dimethoxyphenyl)amino)quinoxalin-2-yl)-1H-pyrazol-1-yl)piperidin-1-yl)methyl)-3-methoxyazetidin-1-yl)prop-2-en-1-one]",3 nM,50 nM,333 nM,414 nM
"COc1cc(Nc2ccc3ncc(-c4cnn([C@@H]5CCN(C(=O)C6CN(C(=O)/C=C/CN(C)C)C6)C5)c4)nc3c2)cc(OC)c1 [Example 20, (R,E)-1-(3-(3-(4-(7-((3,5-dimethoxyphenyl)amino)-quinoxalin-2-yl)-1H-pyrazol-1-yl)pyrrolidine-1-carbonyl)azetidin-1-yl)-4-(dimethylamino)but-2-en-1-one]",5 nM,53 nM,107 nM,194 nM
"COc1cc(Nc2ccc3ncc(-c4cnn(C5CCN(C(=O)C6(F)CN(C(=O)/C=C/CN(C)C)C6)CC5)c4)nc3c2)cc(OC)c1 [Example 10, (E)-1-(3-(4-(4-(7-((3,5-dimethoxyphenyl)amino)-quinoxalin-2-yl)-1H-pyrazol-1-yl)piperidine-1-carbonyl)-3-fluoro-azetidin-1-yl)-4-(dimethylamino)but-2-en-1-one]",3 nM,28 nM,11 nM,35 nM
"COc1cc(Nc2ccc3ncc(-c4cnc(N5CCN(C(=O)C6(F)CN(C(=O)/C=C/CN(C)C)C6)CC5)cc4C)nc3c2)cc(OC)c1 [Example 14, (E)-1-(3-(4-(5-(7-((3,5-dimethoxyphenyl)amino)-quinoxalin-2-yl)-4-methylpyridin-2-yl)-piperazine-1-carbonyl)-3-fluoroazetidin-1-yl)-4-(dimethylamino)but-2-en-1-one]",123 nM,4140 nM,666 nM,1560 nM

# Further molecules by falling IC50 (phosphorylated FGFR3), results first:
IC50 (phosphorylated FGFR3),IC50 (dephosphorylated FGFR1),IC50 [1],IC50 [2],SMILES
4 nM,24 nM,11 nM,49 nM,"C=CC(=O)N1CC[C@@H](C(=O)N2CCC(n3cc(-c4cnc5ccc(Nc6cc(OC)cc(OC)c6)cc5n4)cn3)CC2)C1 [Example 2, (R)-1-(3-(4-(4-(7-((3,5-dimethoxyphenyl)amino)-quinoxalin-2-yl)-1H-pyrazol-1-yl)piperidine-1-carbonyl)pyrrolidin-1-yl)-prop-2-en-1-one]"
4 nM,131 nM,84 nM,339 nM,"COc1cc(Nc2ccc3ncc(-c4cn(C5CCN(C(=O)C6(F)CN(C(=O)/C=C/CN(C)C)C6)CC5)nc4C)nc3c2)cc(OC)c1 [Example 22, (E)-1-(3-(4-(4-(7-((3,5-dimethoxyphenyl)amino)-quinoxalin-2-yl)-3-methyl-1H-pyrazol-1-yl)-piperidine-1-carbonyl)-3-fluoroazetidin-1-yl)-4-(dimethylamino)but-2-en-1-one]"
3 nM,44 nM,15 nM,44 nM,"COc1cc(Nc2ccc3ncc(-c4cnn(C5CCN(C(=O)C6(C#N)CN(C(=O)/C=C/CN(C)C)C6)CC5)c4)nc3c2)cc(OC)c1 [Example 11, (E)-3-(4-(4-(7-((3,5-dimethoxyphenyl)amino)-quinoxalin-2-yl)-1H-pyrazol-1-yl)piperidine-1-carbonyl)-1-(4-(dimethyl-amino)but-2-enoyl)-azetidine-3-carbonitrile]"
3 nM,33 nM,40 nM,89 nM,"C=CC(=O)N1CC(F)(C(=O)N2CCC(n3cc(-c4cnc5ccc(Nc6cc(OC)cc(OC)c6)cc5n4)cn3)CC2)C1 [Example 4, 1-(3-(4-(4-(7-((3,5-dimethoxyphenyl)amino)-quinoxalin-2-yl)-1H-pyrazol-1-yl)piperidine-1-carbonyl)-3-fluoro-azetidin-1-yl)prop-2-en-1-one]"

# Reference: US12351571B2, “Substituted quinoxaline compounds as inhibitors of FGFR tyrosine kinases” (ARRAY BIOPHARMA INC., priority 2018, dated 2025)
